Test system: AMPK
Test: AMPK activation measurements in cultured cells (Western Blot of pThr172 AMPK alpha and pSer79 ACC)
Assay type: cell-based, human
Conditions: for activation of AMPK (anti-phosphoThr172 AMPK alpha, Western Blot) / phosphorylation of ACC substrate (anti-phosphoSer79ACC, Western Blot): HEK293 cells treated for 1 hour; for endogenous levels of AMPKα pT172: HEK293 cells, increasing doses, phenformin 5 mM as activation control; for activation of the AMPK complex: at the indicated doses (figures), cultured HEK293 cells
Protocol: AMPK activation measurements in cultured cells by means of compounds 7 and 16.
Cell line and treatments. The cell line that was used in the treatments with the different assayed reagents was HEK293T (human embryonic kidney cells). Cells were grown in DMEM (Dulbecco's Modified Eagle's Medium) with 25 mM of glucose supplemented with 10% of inactivated fetal bovine serum, 2 mM glutamine, 100 units/ml of penicillin and 100 μg/ml of streptomycin, in a humid atmosphere at 37° C. with 5% of CO2. Cells were grown on 60 mm (p. 60) plates to obtain 70-80% of confluence. Cells were washed in Krebs Ringer buffer (KRB: NaCI […], CaCl2 […], KH2PO4 0.5 mM, KCl 3 mM, NaHCO3 2.5 mM, MgSO40.5 mM, HEPES 10 mM pH 7.4, 95:5 O2/CO2) tempered at 37° C. and subsequently treated for 1 hour at 37° C. in a culture oven, adding the adequate quantities of 7 and 16 (5 mM stock in DMSO) dissolved in KRB/25 mM glucose to reach the final concentrations indicated in the figures. Phenformin 5 mM was used as an activation control.
Preparation of HEK293T cell extracts. After the corresponding treatments, the supernatant was removed and cells were quickly-frozen in liquid N2. The plates were processed one by one and kept in ice , firstly adding the cold lysis buffer. The composition of the buffer was as follows: Tris 10 mM pH 7.4, EDTA 15 mM pH 8.0, NaF 50 mM, Na4P2O7 15 mM, sacarose 0.6 M, 2-Mercaptoethanol 15 mM, a mixture of protease inhibitors without EDTA (Roche) and 1 mM PMSF. Cells were collected in a lysis buffer with the help of a scraper and were lysed, passing each sample through 24 G×⅝″ syringes four times. A small amount was reserved to measure the quantity of protein using the Bradford protein assay and loading buffer for electrophoresis was added to the rest and boiled for 5 min maintaining the samples at −20° C. until their use. The concentration of proteins was determined through the Bradford method using the Bio-Rad Bradford Protein Assay Reagent (BioRad).
Protein analysis by Western Blot. The protein extracts were analysed using SDS-PAGE in gels with 8% or 10% acrylamide and 1.5 mm thick. 30 µg of protein were loaded and transferred to a PVDF (Millipore) membrane for 1.5 hours at 100 V. Blockage was performed using 5% of skimmed milk in TBS-T for 1 hour at room temperature. Immunodetection was performed by incubating the primary antibody all night at 4° C. After three 10-minute washes at room temperature using TBS-T, they were incubated with their corresponding secondary antibody conjugated to HRP. After the three 10-minute washes at room temperature using TBS-T, the membranes were developed using ECL plus (Pierce) and processed using a FUJI LAS 3000 (Fujifilm) unit. The antibodies used were: anti-pAMPKαThr172, anti-AMPKβ1/β2, anti-ACC and anti-pACCser79 from the company Cell Signaling Technology (Danvers, Mass., USA) diluted 1:1000, and the HRP goat anti-rabbit secondary antibody from the company Santa Cruz Technology at a dilution of 1:5000 or 1:10000. The detection of bands with the anti-pAMPKαThr172 and anti-pACCser79 antibodies (AMPK substrate) with respect to their respective loading controls (anti-AMPKβ1/β2 and anti-ACC) was taken as an indicative of AMPK activation.

[1] = concentrations between 12.5 and 100 μM, FIG. 2
[2] = concentrations between 12.5 and 50 μM, FIG. 1

| SMILES | activation of AMPK (anti-phosphoThr172 AMPK alpha, Western Blot) [1] | phosphorylation of ACC substrate (anti-phosphoSer79ACC, Western Blot) [1] | endogenous levels of AMPKα pT172 | activation of the AMPK complex | activation of AMPK (anti-phosphoThr172 AMPK alpha, Western Blot) [2] | phosphorylation of ACC substrate (anti-phosphoSer79ACC, Western Blot) [2] |
| --- | --- | --- | --- | --- | --- | --- |
| O=C(O)c1[nH]c2ccccc2c1-c1ccc(-c2ccccc2O)cc1 [compound 16, 3-(2′-hydroxy-[1,1′-biphenyl]-4-yl)-1H-indole-2-carboxylic acid] | activates AMPK in a dose-dependent manner | increase in phosphorylation | increase in endogenous levels of AMPKα pT172 | capable of inducing the activation of the AMPK complex | – | – |
| O=C(O)c1c(-c2ccc(-c3ccccc3O)cc2)c2ccccc2n1Cc1ccccc1 [compound 7, 1-benzyl-3-(2′-hydroxy-[1,1′-biphenyl]-4-yl)-1H-indole-2-carboxylic acid] | – | – | increase in endogenous levels of AMPKα pT172 | capable of inducing the activation of the AMPK complex | activates AMPK in a dose-dependent manner | increase in phosphorylation |

Source: patent US20170283378A1, “INDOLE DERIVATIVES FOR THE PREVENTION AND/OR TREATMENT OF DIABETES AND ASSOCIATED METABOLIC DISORDERS” (Consejo Superior de Investigaciones Cientificas (CSIC), priority 2014, published 2017)
